In patent US20260315487A1, “IKK-ALPHA INHIBITORS” (Cancer Research Technology Limited, priority 2023, published 2026):

Tests used:
IKKα = molecular target: T1, IKKα (Homo sapiens, UniProt O15111); experiment: activity and selectivity in cells; type: cell-based
T1 sequence (O15111 1-745): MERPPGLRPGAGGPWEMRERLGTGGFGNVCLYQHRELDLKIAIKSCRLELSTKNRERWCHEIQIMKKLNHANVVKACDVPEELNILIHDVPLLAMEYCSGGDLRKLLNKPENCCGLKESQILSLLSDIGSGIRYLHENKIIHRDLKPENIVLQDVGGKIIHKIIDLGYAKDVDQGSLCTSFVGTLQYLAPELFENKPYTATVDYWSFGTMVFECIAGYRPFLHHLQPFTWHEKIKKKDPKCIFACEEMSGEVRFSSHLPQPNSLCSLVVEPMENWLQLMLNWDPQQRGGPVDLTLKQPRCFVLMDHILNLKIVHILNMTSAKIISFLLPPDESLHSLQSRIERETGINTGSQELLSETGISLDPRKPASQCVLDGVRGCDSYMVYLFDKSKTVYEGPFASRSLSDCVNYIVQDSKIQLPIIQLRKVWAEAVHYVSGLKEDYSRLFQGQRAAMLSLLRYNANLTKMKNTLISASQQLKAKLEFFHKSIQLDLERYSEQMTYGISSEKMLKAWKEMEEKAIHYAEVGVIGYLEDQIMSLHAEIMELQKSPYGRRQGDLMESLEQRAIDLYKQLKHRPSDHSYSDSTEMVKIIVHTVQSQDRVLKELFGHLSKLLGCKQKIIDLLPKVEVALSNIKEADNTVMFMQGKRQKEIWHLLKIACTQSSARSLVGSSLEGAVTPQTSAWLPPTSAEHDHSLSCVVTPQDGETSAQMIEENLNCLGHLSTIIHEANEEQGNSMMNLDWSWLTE

Turbidimetric solubility = type: physicochemical

Row | Compound | activity and selectivity in cells, in words (IKKα) | solubility, in words (Turbidimetric solubility)
1 | Nc1n[nH]c2ccc(-c3ccnc4[nH]c(-c5cccc(OCc6ccccc6)c5)cc34)cc12 [5r SU1261, 5-(2-(3-(benzyloxy)phenyl)-1 H-pyrrolo[2,3-b]pyridin-4-yl)-1 H-indazol-3-amine] | activity and selectivity being recapitulated in cells | –
2 | Nc1n[nH]c2ccc(-c3ccnc4[nH]c(-c5ccnc(OCc6ccccc6)c5)cc34)cc12 [6g SU1349, 5-(2-(2-(Benzyloxy)pyridin-4-yl)-1 H-pyrrolo[2,3-b]pyridin-4-yl)-1 H-indazol-3-amine] | – | most soluble in the series that displayed selectivity
